Assays:
[1] = acetonitrile:methanol (81:19)
From the text: Racemic pramipexole was subjected to preparative chromatography using Chiralpak® AD as the stationary phase and acetonitrile:methanol (81:19) as the mobile phase.

dopamine D-2 = dopamine D-2 (Homo sapiens, UniProt P14416); conditions: compared with the R(+) enantiomer; cited from earlier work
dopamine D-2, sequence (P14416 whole entry): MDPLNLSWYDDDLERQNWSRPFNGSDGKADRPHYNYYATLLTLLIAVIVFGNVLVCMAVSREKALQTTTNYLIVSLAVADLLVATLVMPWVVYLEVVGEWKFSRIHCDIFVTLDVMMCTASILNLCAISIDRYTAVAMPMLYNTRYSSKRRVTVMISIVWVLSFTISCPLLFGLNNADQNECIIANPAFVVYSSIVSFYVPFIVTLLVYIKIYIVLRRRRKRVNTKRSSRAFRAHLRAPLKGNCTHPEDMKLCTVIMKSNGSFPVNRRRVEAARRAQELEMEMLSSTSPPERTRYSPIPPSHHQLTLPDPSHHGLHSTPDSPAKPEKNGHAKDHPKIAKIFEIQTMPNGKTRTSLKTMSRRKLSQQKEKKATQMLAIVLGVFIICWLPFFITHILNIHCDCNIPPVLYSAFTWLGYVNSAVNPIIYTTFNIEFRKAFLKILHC

SMILES	solubility in the mobile phase [1] [mg/mL]	dopaminergic activity of the S(−) enantiomer relative to the corresponding R(+) enantiomer (dopamine D-2)
CCCNC1CCc2nc(N)sc2C1 (racemic) [Racemic pramipexole, R,S(±)-2-amino-6-propylamino-4,5,6,7-tetrahydrobenzothiazole]	> 40	
CCCN[C@H]1CCc2nc(N)sc2C1 [Pramipexole, S(−)-2-amino-6-propylamino-4,5,6,7-tetrahydrobenzothiazole]		twice as high
